Laboratory results published in US20140004243A1, “SALTY TASTE ENHANCER” (AJINOMOTO CO., INC., priority 2011, published 2014).

Target: T1, Human ENaC δ, β and γ subunit (Homo sapiens, UniProt P51168+P51170+P51172)
T1 construct: expressed in transfected cells; host or cells: Xenopus laevis (African clawed frog) oocytes injected with cRNA
T1 sequence (P51172 1-802): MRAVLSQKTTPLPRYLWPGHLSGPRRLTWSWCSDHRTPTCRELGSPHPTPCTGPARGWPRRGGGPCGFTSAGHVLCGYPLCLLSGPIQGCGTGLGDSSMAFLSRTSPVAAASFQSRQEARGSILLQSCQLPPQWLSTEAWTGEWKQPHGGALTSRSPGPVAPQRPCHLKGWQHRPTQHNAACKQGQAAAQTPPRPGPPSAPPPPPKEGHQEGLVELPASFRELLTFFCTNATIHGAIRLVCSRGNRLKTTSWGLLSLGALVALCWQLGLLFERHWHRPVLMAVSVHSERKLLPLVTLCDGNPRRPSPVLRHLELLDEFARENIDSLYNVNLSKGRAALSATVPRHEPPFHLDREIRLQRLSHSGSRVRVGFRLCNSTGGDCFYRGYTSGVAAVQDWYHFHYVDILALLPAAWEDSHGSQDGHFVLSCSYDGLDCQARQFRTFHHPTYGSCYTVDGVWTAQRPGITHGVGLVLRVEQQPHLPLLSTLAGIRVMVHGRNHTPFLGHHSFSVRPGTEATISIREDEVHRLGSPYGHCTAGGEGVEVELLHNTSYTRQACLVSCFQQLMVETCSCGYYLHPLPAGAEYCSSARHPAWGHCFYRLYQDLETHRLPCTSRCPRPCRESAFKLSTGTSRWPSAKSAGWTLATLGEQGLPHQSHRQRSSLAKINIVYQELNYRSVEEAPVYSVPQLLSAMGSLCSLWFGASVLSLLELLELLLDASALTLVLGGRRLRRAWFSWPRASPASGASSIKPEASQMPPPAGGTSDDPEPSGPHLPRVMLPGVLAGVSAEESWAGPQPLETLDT
T1 sequence (P51168 1-640): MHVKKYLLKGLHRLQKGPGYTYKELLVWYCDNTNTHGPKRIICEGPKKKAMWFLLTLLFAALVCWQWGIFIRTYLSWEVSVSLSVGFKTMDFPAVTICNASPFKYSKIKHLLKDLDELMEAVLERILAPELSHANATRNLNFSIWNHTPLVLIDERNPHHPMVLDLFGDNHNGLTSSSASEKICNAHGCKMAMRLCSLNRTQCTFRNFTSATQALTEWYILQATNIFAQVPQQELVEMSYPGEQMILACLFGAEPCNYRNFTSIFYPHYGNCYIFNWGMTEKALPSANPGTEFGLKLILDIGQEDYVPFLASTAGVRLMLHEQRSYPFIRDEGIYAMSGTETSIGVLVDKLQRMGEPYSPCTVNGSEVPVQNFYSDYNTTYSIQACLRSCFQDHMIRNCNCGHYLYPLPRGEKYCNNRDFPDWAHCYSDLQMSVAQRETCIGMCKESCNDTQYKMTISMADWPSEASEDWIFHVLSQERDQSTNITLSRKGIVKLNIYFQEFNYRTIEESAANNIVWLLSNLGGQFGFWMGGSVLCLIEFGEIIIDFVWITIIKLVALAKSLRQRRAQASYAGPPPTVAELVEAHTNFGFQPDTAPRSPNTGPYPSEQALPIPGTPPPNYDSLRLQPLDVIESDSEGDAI
T1 sequence (P51170 1-649): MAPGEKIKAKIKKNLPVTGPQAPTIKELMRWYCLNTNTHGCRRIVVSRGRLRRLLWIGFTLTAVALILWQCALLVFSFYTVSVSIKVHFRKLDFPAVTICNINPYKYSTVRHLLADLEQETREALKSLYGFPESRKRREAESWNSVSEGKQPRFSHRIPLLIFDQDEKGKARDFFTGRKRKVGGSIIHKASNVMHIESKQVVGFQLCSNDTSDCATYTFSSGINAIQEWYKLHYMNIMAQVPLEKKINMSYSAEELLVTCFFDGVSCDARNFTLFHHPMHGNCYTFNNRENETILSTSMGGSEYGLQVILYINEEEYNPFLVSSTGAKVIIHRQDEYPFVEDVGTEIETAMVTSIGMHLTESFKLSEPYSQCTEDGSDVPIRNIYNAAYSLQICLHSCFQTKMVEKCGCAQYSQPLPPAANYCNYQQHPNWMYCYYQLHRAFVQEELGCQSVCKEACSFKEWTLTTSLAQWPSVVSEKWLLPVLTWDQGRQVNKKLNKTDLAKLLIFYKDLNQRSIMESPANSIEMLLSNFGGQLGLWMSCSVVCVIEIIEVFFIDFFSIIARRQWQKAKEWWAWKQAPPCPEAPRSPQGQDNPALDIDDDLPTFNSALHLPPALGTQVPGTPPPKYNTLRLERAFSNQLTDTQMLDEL
Test: Measurement of ENaC activation potency (MED) in ENaC-expressing oocyte, Two Electrode Voltage Clamp
Format: cell-based
Conditions: minimum effective dose at which current started to increase; ENaC-expressing African clawed frog oocyte; smaller MED = higher ENaC activation potency
Outline: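 Xenopus oocytes injected with human ENaC δ, β and γ cRNA, cultured 16–72 hr, voltage-clamped 30 mV below resting potential in ND96 (pH 7.6) by two-electrode voltage clamp. Compounds (0.1 nM–300 μM) perfused at rising concentrations every 3 min. MED = lowest dose raising current ≥10%, or raising 5 μM capsazepine-evoked current ≥25%, whichever smaller.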

Row | MED [µM] | Structure (SMILES)
1 | 1 | COC[C@@H](NC(=S)NCCc1ccccc1)c1ccccc1 [Example 75]
2 | 0.3 | C[C@@H](NC(=S)N[C@H](Cc1ccccc1)C(=O)O)c1cccc(O)c1 [Example 107]
